Literature values in patent US20050070607A1, “N-acetylcysteine compositions and methods for the treatment and prevention of cysteine/glutathione deficiency in diseases and conditions” (priority 2003, published 2005).
Read-outs that look alike come from different tables or passages of the source.

How the values were obtained:
[1] = system: severe malaria
[2] = system: Stable angina and nitrate tolerance
[3] = system: Sjogren's syndrome; conditions: ocular soreness, ocular irritability, halitosis, daytime thirst; 200 mg daily; n 26; 6 weeks; Walters 1986[56]
[4] = system: Smoking
[5] = system: Alzheimer's Disease; conditions: MMSE, ADL and other psychometric tests; 50 mg/kg/day; n 47; 24 weeks; Adair 2001[60]
[6] = system: Bronchitis
[7] = system: septic shock patients
[8] = system: Chronic blepharitis; conditions: tear film quality (FBUT, mucous fern pattern); 300 mg/day po; n 40; 4 months; Yalcin 2002[57]
[9] = compared with the stable cysteine disulfide
[10] = system: Cardiac bypass
[11] = system: Hepatic transplant patients; conditions: oxygen delivery and consumption, base deficit; 150 mg/kg for 15 min; 12.5 mg/kg for 4 h; n 50; 5 hours; Bromley 1995[19]
[12] = system: otitis media with effusion; conditions: instillation into one ear; recurrence, VT re-insertion, time until VT extrusion; 0.05 ml Mucomyst solution at 1, 3 and 7 days; n 75; 39 months; Ovesen 2000[53]
[13] = system: Malnourished children; conditions: GSH synthesis rate and concentration; 0.5 mmol per kg per day; placebo alanine; n 32; 50 days; Badaloo 2002[54]
[14] = system: influenza or influenza-like episodes; conditions: frequency and severity of episodes, elderly and chronic non-respiratory disease; 1200 mg/day po; n 262; 6 months; De Flora 1997[46]
[15] = system: colonic crypt epithelium of human volunteers who previously had adenomatous polyps; conditions: Colon cancer; proliferative index; 800 mg NAC daily po; n 64; 12 weeks; Estensen 1999[55]
[16] = system: acute lung injury
[17] = system: subjects with acetaminophen-induced fulminant hepatic failure; conditions: late presentation; survival, cerebral edema, hypotension; IV 150 mg/kg for 15 min; 50 mg/kg for 4 h; 100 mg/kg over 16 h; n 50; 21 days; Keays 1991[2]
[18] = system: cardiac risk patients; conditions: oxygen consumption, cardiac index, ST-depression during brief hyperoxia; 150 mg/kg IV; n 30; 30 min; Spies 1996[11]
[19] = system: patients with unstable angina pectoris
[20] = system: Exercise
[21] = system: premature infants with chronic lung disease; conditions: intratracheal NAC 5%; total airway resistance, cyanotic spells; n 22; 24 hours; Bibi 1992[203]
[22] = system: HIV infected individuals
[23] = system: hemodialysis patients

Question: With `CC(=O)N[C@@H](CS)C(=O)O` [NAC, N-acetylcysteine] as the compound, how does the “time for elevated serum lactate levels to return to normal vs placebo” value ([1]; 300 mg/kg intravenously over 20 hours, 30 subjects [51]) read?
Answer: twice as quickly

Question: And the Beneficial effects ([1]; quinine-treated malaria, serum lactate, 300 mg/kg IV, n 30, 20 hours, Watt 2002[51])?
Answer: Beneficial

Question: What about the Beneficial effects ([2]; NAC + ISDN infusion, tolerance to antianginal effects, 2 g IV bolus, n 10, 30 hours, Boesgaard 1992[14]) of the same compound?
Answer: Beneficial

Question: And the Beneficial effects ([2]; NAC + isosorbide dinitrate (ISDN), ST segment depression, 2400 mg daily po, n 7, 8 days, Boesgaard 1991[13])?
Answer: Beneficial

Question: What about the Beneficial effects ([2]; NAC + isosorbide-5-mononitrate, total exercise time, 4800 mg po, n 10, 24 hours, Svendsen 1989[12]) of the same compound?
Answer: Beneficial

Question: What about the Beneficial effects [3] of the same compound?
Answer: Beneficial

Question: What about the Beneficial effects ([4]; formation of lipophilic-DNA adducts, 1200 mg/day po, n 41, 6 months, VanShooten 2002[35]) of the same compound?
Answer: Beneficial

Question: What about the Beneficial effects ([4]; mucus clearance, 600 mg/day, n 12, 30 days, Olivieri 1985[36]) of the same compound?
Answer: Beneficial

Question: What about the Beneficial effects [5] of the same compound?
Answer: Beneficial

Question: And the Beneficial effects ([6]; General Health Questionnaire score, mild chronic bronchitis, 1200 mg/day po, n 153, 22 weeks, Hansen 1994[34])?
Answer: Beneficial

Question: And the Beneficial effects ([6]; days incapacitated, 600 mg/day po, n 526, 6 months, Parr and Huitson 1987[31])?
Answer: Beneficial

Question: What about the Beneficial effects ([6]; difficulty in expectoration and cough severity, 600 mg/day po, n 155, 3 months, Jackson 1984[30]) of the same compound?
Answer: Beneficial

Question: What about the Beneficial effects ([6]; evening peak flows after NAC pre-treatment, 1200 mg/day po, n 37, 22 weeks, Evald 1989[33]) of the same compound?
Answer: Beneficial

Question: And the Beneficial effects ([6]; exacerbation rate, 400 mg/day po, n 259, 6 months, Boman 1983[29])?
Answer: Beneficial

Question: What about the Beneficial effects ([6]; frequency of exacerbations, 600 mg/day, 3 days/wk, po, n 69, 6 months, Grassi and Morandini 1976[24]) of the same compound?
Answer: Beneficial

Question: What about the Beneficial effects ([6]; sick-leave days caused by exacerbations, 600 mg/day po, n 116, 6 months, Rasmussen and Glennow 1988[32]) of the same compound?
Answer: Beneficial

Question: What about the Beneficial effects ([6]; sputum consistency, expectoration, peak expiratory flow rate, 600 mg/day po, n 29, 4 weeks, Aylward 1980[25]) of the same compound?
Answer: Beneficial

Question: And the Beneficial effects ([6]; sputum thickness, expectoration, exacerbations, 400 mg/day po, n 744, 6 months, Grassi 1980, Ferrari 1980[27,28])?
Answer: Beneficial

Question: What about the Beneficial effects ([6]; sputum volume and viscosity, acute and chronic bronchitis, 600 mg/day po, n 215, 10 days, Brocard 1980[26]) of the same compound?
Answer: Beneficial

Question: And the Beneficial effects ([7]; Cardiac performance, MAP, cardiac index, left ventricular stroke work index, early administration 150 mg/kg over 15 min, 50 mg/kg over next 4 hrs, 100 mg/kg over next 24 hrs, n 20, 48 hours, Peake 1996[281])?
Answer: Adverse

Question: And the Beneficial effects ([7]; hepatosplanchnic flow and function, 150 mg/kg over 15 min before 12.5 mg/kg/hr for 90 min, n 60, 2 hours, Rank 2000[44])?
Answer: Beneficial

Question: And the Beneficial effects ([7]; respiratory function, ICU stay, IL-8, 150 mg/kg bolus then 50 mg/kg over 4 hr IV, n 22, 24 hours, Spapen 1998[43])?
Answer: Beneficial

Question: What about the Beneficial effects ([7]; tissue oxygenation, survival of responders, 150 mg/kg for 15 min, then 12.5 mg/hr over 90 min IV, n 58, 2 hrs, Spies 1994[42]) of the same compound?
Answer: Beneficial

Question: What about the Beneficial effects [8] of the same compound?
Answer: Beneficial

Question: What about the “solubility relative to cystine” value [9] of the same compound?
Answer: much more soluble

Question: And the “apoptosis induction by cardioplegic arrest in left ventricular cardiac myocytes” value ([10]; 100 mg/kg followed by infusion 20 mg/kg, n 36, Fischer 2004[270])?
Answer: can effectively ne prevented by NAC.

Question: And the Beneficial effects ([10]; oxidative burst response of peripheral neutrophils, 100 mg/kg bolus then 20 mg/kg continuous IV, n 12, 24 hours, Andersen 1995[16])?
Answer: Beneficial

Question: And the Treatment effect [11]?
Answer: Beneficial

Question: What about the Beneficial effects [12] of the same compound?
Answer: Beneficial

Question: And the Treatment effect [13]?
Answer: Beneficial

Question: What about the Beneficial effects [14] of the same compound?
Answer: Beneficial

Question: And the Treatment effect [15]?
Answer: Beneficial

Question: And the Beneficial effects ([16]; RBC GSH, days of acute lung injury, cardiac index, NAC 70 mg/kg q 8 hr IV, OTZ 63 mg/kg q 8 hr IV, n 48, 10 days, Bernard 1997[222])?
Answer: Beneficial

Question: And the Beneficial effects ([16]; elastase activity, pretreatment 72 mg/kg bolus, 72 mg/kg over 12 hours IV, n 18, 12 hours, De Backer 1996[214])?
Answer: Beneficial

Question: What about the Beneficial effects ([16]; mild-to-moderate ALI, systemic oxygenation, need for ventilatory support, 40 mg/kg/day IV, n 61, 3 days, Suter 1994[211]) of the same compound?
Answer: Beneficial

Question: And the Treatment effect [17]?
Answer: Beneficial

Question: And the Beneficial effects [18]?
Answer: Beneficial

Question: And the Beneficial effects ([19]; NAC + nitroglycerin, incidence of acute myocardial infarction, 5 g IV, n 46, 6 hours, Horowitz 1988[175,176])?
Answer: Beneficial

Question: And the Beneficial effects ([19]; nitroglycerin + NAC with conventional therapy, outcome events, 600 mg po, n 200, 4 months, Ardissino 1997[177])?
Answer: Beneficial

Question: What about the Beneficial effects ([20]; frail geriatric patients, knee extensor strength, plasma TNF, 1800 mg daily, n 44, 6 weeks, Hauer 2003[59]) of the same compound?
Answer: Beneficial

Question: And the Beneficial effects ([20]; intense, intermittent exercise, reduced and oxidized GSH, 125 mg/kg/hr for 15 min, then 25 mg/kg/hr, n 8, Medved 2003[58])?
Answer: Beneficial

Question: And the Beneficial effects ([20]; prolonged submaximal exercise, well trained individuals, performance, 125 mg/kg/hr for 15 min, then 25 mg/kg/20 min, Medved 2004[286])?
Answer: Beneficial

Question: And the Beneficial effects [21]?
Answer: Adverse

Question: And the Beneficial effects ([22]; CD4 counts > 200/ul, plasma cysteine, rate of CD4 decline, 800 mg/day po, n 45, 4 months, Akerlund 1996[47])?
Answer: Beneficial

Question: What about the Beneficial effects ([22]; beginning of antiretroviral therapy, hematocrit, CD4 cell count, 600 mg/day, n 20, 180 days, Spada 2002[227]) of the same compound?
Answer: Beneficial

Question: What about the Beneficial effects ([22]; immune function, 0.6-3.6 g depending on GSH levels po, n 69, 7 months, Breitkreutz 2000[50]) of the same compound?
Answer: Beneficial

Question: What about the “adverse events, highest reported long-term NAC dosage” value ([22]; in vivo) of the same compound?
Answer: No adverse events requiring physician intervention

Question: And the Beneficial effects ([22]; whole blood GSH and T cell GSH, 3,200-8,000 mg/day po, n 81, 8 weeks, De Rosa 2000, Herzenberg 1997[48,49])?
Answer: Beneficial

Question: And the “RR, composite cardiovascular outcome” value ([23]; 134 chronic hemodialysis patients, p=0.03, [17])?
Answer: 0.60

Question: What about the Beneficial effects ([23]; Homocysteine in hemodialysis, intravenous 5 g in 5% glucose solution, n 20, 1 session, Scholze 2004[273]) of the same compound?
Answer: Beneficial

Question: And the “serum oxidized LDL values at the end of the study” value ([23]; chronic hemodialysis patients [17])?
Answer: much lower

Question: What about the “Plasma homocysteine level change” value ([23]; chronic oral 1200 mg BID, 4 weeks, placebo −8%, P = 0.07, Friedman 2003[276]) of the same compound?
Answer: chronic oral NAC therapy (−19%) but did

Question: And the Beneficial effects ([23]; composite cardiovascular end points, 600 mg bid, n 134, 1-24 months, median 14.5 months, Tepel 2003[17])?
Answer: Beneficial

Question: And the “Plasma homocysteine level after hemodialysis” value ([23]; control group 58 +/− 22%, P < 0.01, intravenous 5 g, Scholze 2004[273])?
Answer: homocysteine levels decreased to 12 +/− 7% of predialysis level (mean +

Question: And the Beneficial effects ([23]; end-stage renal failure, plasma homocysteine, pulse pressure, endothelial function, 5 g in 5% glucose, n 20, Scholze 2004[273])?
Answer: Beneficial
